Reference: patent US9969698B2, “Quinoxalinyl-piperazinamide methods of use” (REXAHN PHARMACEUTICALS, INC., priority 2015, dated 2018)
Where “and” joins values, the source holds several entries; their conditions need not be identical. Identical values can stand only once. Like-named read-outs stand apart in the source and are kept apart here.

Test: Human pharmacokinetics, dose-ranging study
Format: in vivo
Description: In a dose-ranging study, the pharmacokinetics (PK), safety and tolerability of RX-5902 at various oral doses were evaluated. Subjects with advanced or metastatic solid tumors were administered capsules containing RX-5902 at daily doses of 25-775 mg once weekly, 250-300 mg three times a week, 150-300 mg five times a week, or 300-350 mg seven times a week of RX-5902 for up to 6 dosing cycles. Each cycle consisting of 1-5 doses of RX-5902 per week for 3 weeks followed by 1 week of rest, or 5-7 doses of RX-5902 per week for 4 weeks without any rest per 4-week cycle. All but one subject had fasted from food for at least 8 hours before administration. One subject received 300 mg RX-5902 in fed state. Plasma concentrations were measured on Days 1 and 15, for 48 hrs, using a validated LC-MS/MS assay, and noncompartmental pharmacokinetic parameters were calculated using Phoenix WinNonlin, Version 6.4.
Preliminary PK data after a single administration is presented in FIG. 1 (for Subjects #1-11) and Table 3.

[1] = oral capsule, 300 mg, 1 per week, Day 1, fasted
[2] = oral capsule, 300 mg, 5 per week, Day 1, fasted
[3] = oral capsule, 775 mg, 1 per week, Day 1, fasted

COc1cc(OC)cc(N2CCN(C(=O)Nc3nc4cc(F)ccc4nc3OC)CC2)c1 [RX-5902, 4-(3,5-dimethoxyphenyl)-N-(7-fluoro-3-methoxyquinoxalin-2-yl)piperazine-1-carboxamide]
AUC(0-t) (human, plasma, po, 300 mg, oral capsule, 300 mg, 1 per week, Day 1, fed, read-out: AUC0-24): 8620 ng·h/mL
AUC(0-t) (human, plasma, po, 300 mg, oral capsule, 300 mg, 1 per week, Day 1, fed, read-out: AUC0-48): 10700 ng·h/mL
Cmax (human, plasma, po, 300 mg, oral capsule, 300 mg, 1 per week, Day 1, fed, read-out: Cmax): 779 ng/mL
half-life (human, plasma, po, 300 mg, oral capsule, 300 mg, 1 per week, Day 1, fed, read-out: T1/2 (converted)): 11.9 h
Tmax (human, plasma, po, 300 mg, oral capsule, 300 mg, 1 per week, Day 1, fed, read-out: Tmax): 4 h
AUC(0-t) (human, plasma, po, 300 mg, oral capsule, 300 mg, 3 per week, Day 1, fasted, read-out: AUC0-24): 3850 ng·h/mL
AUC(0-t) (human, plasma, po, 300 mg, oral capsule, 300 mg, 3 per week, Day 1, fasted, read-out: AUC0-48): 4560 ng·h/mL
Cmax (human, plasma, po, 300 mg, oral capsule, 300 mg, 3 per week, Day 1, fasted, read-out: Cmax): 288 ng/mL
half-life (human, plasma, po, 300 mg, oral capsule, 300 mg, 3 per week, Day 1, fasted, read-out: T1/2 (converted)): 10.3 h
Tmax (human, plasma, po, 300 mg, oral capsule, 300 mg, 3 per week, Day 1, fasted, read-out: Tmax): 6 h
AUC(0-t) (human, plasma, po, 300 mg, oral capsule, 300 mg, 3 per week, Day 15, fasted, read-out: AUC0-24): 3050 ng·h/mL
AUC(0-t) (human, plasma, po, 300 mg, oral capsule, 300 mg, 3 per week, Day 15, fasted, read-out: AUC0-48): 4140 ng·h/mL
Cmax (human, plasma, po, 300 mg, oral capsule, 300 mg, 3 per week, Day 15, fasted, read-out: Cmax): 301 ng/mL
Tmax (human, plasma, po, 300 mg, oral capsule, 300 mg, 3 per week, Day 15, fasted, read-out: Tmax): 2 h
AUC(0-t) (human, plasma, po, 300 mg, oral capsule, 300 mg, 5 per week, Day 1, fasted, read-out: AUC0-24): 3800 ng·h/mL
Cmax (human, plasma, po, 300 mg, oral capsule, 300 mg, 5 per week, Day 1, fasted, read-out: Cmax): 317 ng/mL
AUC(0-t) (human, plasma, po, 300 mg, oral capsule, 300 mg, 5 per week, Day 15, fasted, read-out: AUC0-24): 3840 ng·h/mL
Tmax (human, plasma, po, 300 mg, oral capsule, 300 mg, 5 per week, Day 15, fasted, read-out: Tmax): 1.5 h
AUC(0-t) (human, plasma, po, 300 mg, oral capsule, 300 mg, 7 per week, Day 1, fasted, read-out: AUC0-24): 2990 ng·h/mL
AUC(0-t) (human, plasma, po, 300 mg, oral capsule, 300 mg, 7 per week, Day 1, fasted, read-out: AUC0-48): 3180 ng·h/mL
Cmax (human, plasma, po, 300 mg, oral capsule, 300 mg, 7 per week, Day 15, fasted, read-out: Cmax): 1250 ng/mL
Tmax (human, plasma, po, 300 mg, oral capsule, 300 mg, 7 per week, Day 15, fasted, read-out: Tmax): 6 h
AUC(0-t) (human, plasma, po, 350 mg, oral capsule, 350 mg, 7 per week, Day 1, fasted, read-out: AUC0-24): 4820 ng·h/mL
AUC(0-t) (human, plasma, po, 350 mg, oral capsule, 350 mg, 7 per week, Day 1, fasted, read-out: AUC0-48): 4960 ng·h/mL
Cmax (human, plasma, po, 350 mg, oral capsule, 350 mg, 7 per week, Day 1, fasted, read-out: Cmax): 750 ng/mL
Tmax (human, plasma, po, 350 mg, oral capsule, 350 mg, 7 per week, Day 1, fasted, read-out: Tmax): 1.5 h
AUC(0-t) (human, plasma, po, 425 mg, oral capsule, 425 mg, 1 per week, Day 1, fasted, read-out: AUC0-24): 9320 ng·h/mL
AUC(0-t) (human, plasma, po, 425 mg, oral capsule, 425 mg, 1 per week, Day 1, fasted, read-out: AUC0-48): 14700 ng·h/mL
Cmax (human, plasma, po, 425 mg, oral capsule, 425 mg, 1 per week, Day 1, fasted, read-out: Cmax): 660 ng/mL
Tmax (human, plasma, po, 425 mg, oral capsule, 425 mg, 1 per week, Day 1, fasted, read-out: Tmax): 2 h
AUC(0-t) (human, plasma, po, 575 mg, oral capsule, 575 mg, 1 per week, Day 1, fasted, read-out: AUC0-24): 6820 ng·h/mL
AUC(0-t) (human, plasma, po, 575 mg, oral capsule, 575 mg, 1 per week, Day 1, fasted, read-out: AUC0-48): 10100 ng·h/mL
Cmax (human, plasma, po, 575 mg, oral capsule, 575 mg, 1 per week, Day 1, fasted, read-out: Cmax): 707 ng/mL
Tmax (human, plasma, po, 575 mg, oral capsule, 575 mg, 1 per week, Day 1, fasted, read-out: Tmax): 4 h
AUC(0-t) (human, plasma, po, 775 mg, oral capsule, 775 mg, 1 per week, Day 1, fasted, read-out: AUC0-24): 3540 ng·h/mL
AUC(0-t) (human, plasma, po, 775 mg, oral capsule, 775 mg, 1 per week, Day 1, fasted, read-out: AUC0-48): 5010 ng·h/mL
Cmax (human, plasma, po, 775 mg, oral capsule, 775 mg, 1 per week, Day 1, fasted, read-out: Cmax): 487 ng/mL
half-life (human, plasma, po, 775 mg, oral capsule, 775 mg, 1 per week, Day 1, fasted, read-out: T1/2 (converted)): 9.7 h
Tmax (human, plasma, po, oral capsules, all subjects, after dosing, read-out: Tmax, observed range): 1 to 6 h
half-life (human, plasma, po, oral capsules, all subjects, read-out: Apparent terminal T1/2, mean value (converted)): 13 h
half-life (human, plasma, po, oral capsules, all subjects, read-out: Apparent terminal T1/2, range): 5.8 to 27.6 h
AUC0-24 [1]: 4170 ng·h/mL
AUC0-48 [1]: 5552 ng·h/mL
Cmax [1]: 452 ng/mL
T1/2 [1]: 15.6 h
AUC0-24 [2]: 4607 ng·h/mL and 3855 ng·h/mL
Cmax [2]: 549 ng/mL and 419 ng/mL and 624 ng/mL
AUC0-24 (oral capsule, 300 mg, 5 per week, Day 15, fasted): 4878 ng·h/mL
AUC0-24 [3]: 6925 ng·h/mL
AUC0-48 [3]: 8126 ng·h/mL
Cmax [3]: 654 ng/mL
apparent, short lag time (oral capsules, sometimes displayed): 0.25 h
share of AUC0-t (0-48 hours) observed by 24 hours (oral capsules, usually): over 75%
